Test results: the supplement of paper PMC10307832

Tests used:
Assay in all cases: relative viability (nuclei count vs DMSO), 5 days (fraction); higher = more cells survive
[1] = compound: C1CC2=C(C1)C=C(C=C2)OC3=NC(=C4C(=N3)N(C=N4)CC5=CC=C(C=C5)C6=CC=CC=C6)N[C@@H](CC7=CC=CC=C7)CO [QS11] + C[C@]1(O)C[C@@H](c2nc(-c3ccc4ccc(-c5ccccc5)nc4c3)c3c(N)nccn32)C1 [Linsitinib] (partner 1 µM)
In short: (§1)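 Lung cancer cell lines were seeded in 1536-well plates and dosed by pin tool the next day, with either a single drug or a fixed anchor-drug dose combined with five library-drug doses (not always all listed) spaced in √10 steps. Five days later, one step fixed the cells and stained their nuclei (final 0.05% Triton X-100, 1% formaldehyde, 1 ug/ml Hoechst), and nuclei were counted on 4× images. Relative viability is the nuclei count in treated wells divided by the count in vehicle wells, and each value is the median of duplicate plates.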

[2] = compound: CC1=C(C=C(C=C1)NC(=O)C2=CC(=CC=C2)C(C)(C)C#N)NC3=CC4=C(C=C3)N=CN(C4=O)C [AZ628] + COc1cc2c(Oc3ccc(NC(=O)C4(C(=O)Nc5ccc(F)cc5)CC4)cc3F)ccnc2cc1OCCCN1CCOCC1 [Foretinib] (partner 0.25 µM)
In short: as §1

[3] = compound: CC1=C(C=C(C=C1)NC(=O)C2=CC(=CC=C2)C(C)(C)C#N)NC3=CC4=C(C=C3)N=CN(C4=O)C [AZ628] + Nc1ncn([C@H]2C[C@H](O)[C@@H](CO)O2)c(=O)n1 [Decitabine] (partner 2 µM)
In short: as §1

[4] = compound: C[As](C)SC[C@H](NC(=O)CC[C@H](N)C(=O)O)C(=O)NCC(=O)O [Darinaparsin] + Cc1nc(NC(=O)N2CCC[C@H]2C(N)=O)sc1-c1ccnc(C(C)(C)C(F)(F)F)c1 [Alpelisib] (partner 2 µM)
In short: as §1

Cell Line	relative viability ([1]; first compound 0.08 µM)	relative viability ([1]; first compound 0.253 µM)	relative viability ([1]; first compound 0.8 µM)	relative viability ([1]; first compound 2.53 µM)	relative viability ([1]; first compound 8 µM)	relative viability ([2]; first compound 0.08 µM)	relative viability ([2]; first compound 0.253 µM)	relative viability ([2]; first compound 0.8 µM)	relative viability ([2]; first compound 2.53 µM)	relative viability ([2]; first compound 8 µM)	relative viability ([3]; first compound 0.08 µM)	relative viability ([3]; first compound 0.253 µM)	relative viability ([3]; first compound 0.8 µM)	relative viability ([3]; first compound 2.53 µM)	relative viability ([3]; first compound 8 µM)	relative viability ([4]; first compound 0.08 µM)	relative viability ([4]; first compound 0.8 µM)	relative viability ([4]; first compound 2.53 µM)	relative viability ([4]; first compound 8 µM)
NCI-H358	0.731	0.779	0.952	1.49	1.33	0.538	0.472	0.373	0.466	0.323	0.233	0.192	0.184	0.195	0.158	0.922	0.87	0.817	0.994
NCI-H1666	0.853	0.644	0.644	0.53	0.464	0.894	0.769	0.749	0.756	0.893	0.744	0.691	0.625	0.62	0.657	1.11	0.967	1.14	1.06
LOU-NH91	0.901	0.862	–	0.891	0.876	0.956	0.961	0.956	0.95	0.821	0.814	0.811	0.801	0.816	0.749	0.703	0.718	0.749	0.68
RERF-LC-KJ	0.933	0.929	0.854	0.868	0.782	0.885	0.922	0.898	0.899	0.893	0.698	0.708	0.644	0.647	0.688	0.865	0.917	0.73	0.873
NCI-H2085	0.885	1.19	1.01	0.959	1.07	0.994	1.17	1.07	1.09	0.676	0.534	0.563	0.569	0.575	0.609	1.07	1	1.03	0.957
NCI-H1793	0.972	0.877	0.939	1.19	1.04	0.669	0.83	0.787	0.487	0.384	0.616	0.442	0.458	0.441	0.184	0.716	0.935	0.643	0.958
HCC-366	0.696	0.575	–	0.355	0.303	0.885	0.884	0.781	0.892	0.372	0.345	0.313	0.269	0.292	0.182	0.753	0.424	0.329	0.706
NCI-H596	1.04	1.02	1.01	1.1	1.16	0.867	1.05	0.913	0.905	0.991	1.02	1.12	1.13	1.1	0.933	0.511	0.621	0.421	0.602
NCI-H2126	0.71	0.814	0.679	0.683	0.643	1.27	1.18	1.22	0.922	0.94	0.567	0.571	0.632	0.606	0.593	0.803	0.737	0.616	0.804
EMC-BAC-2	0.825	0.826	0.728	0.815	0.73	0.91	0.87	0.871	0.901	0.877	0.944	0.84	0.874	0.749	0.465	0.894	0.687	0.709	0.888
H3255	0.954	0.97	–	0.973	1.03	0.958	0.899	0.78	0.96	0.661	0.723	0.504	0.567	0.51	0.379	0.761	0.626	0.636	0.792
NCI-H838	1.07	0.879	0.7	0.837	0.851	0.931	1	1.06	0.914	0.871	0.49	0.504	0.476	0.455	0.479	1.18	1	0.846	1.14
NCI-H2009	1.25	1.26	1.13	1.03	0.95	1.02	0.861	0.704	0.573	0.355	0.404	0.36	0.313	0.32	0.291	1.25	1.19	1.06	1.16
HCC-15	0.965	0.993	–	0.857	0.841	1.08	0.984	0.871	0.868	0.467	0.633	0.521	0.426	0.481	0.29	0.914	0.95	0.867	1.08
NCI-H1395	–	1.01	1.17	1.16	1.18	0.996	0.967	0.974	1	0.939	0.678	0.698	0.667	0.647	0.788	1.17	0.912	0.909	0.945
COR-L 105	0.964	0.706	0.929	0.732	0.883	1.47	0.95	1.19	1.11	0.669	0.74	0.692	0.668	0.613	0.559	1.34	1.21	–	1.08
BEN	0.851	1.17	1.07	0.79	1.12	0.694	0.511	0.544	0.561	0.571	0.758	0.637	0.651	0.668	0.735	0.963	1.09	0.956	1.33
